Test results published in article PMC9895061 (Signal Transduction and Targeted Therapy, 2023).
Where two headings read alike, the source gives them in different places.

What was measured:
[1] = biological target: T1, PRDX1 (Homo sapiens, UniProt Q06830); experiment: Trx-TrxR-NADPH coupling peroxiredoxin activity assay, PRDX1; assay type: biochemical
T1 sequence (Q06830 1-199): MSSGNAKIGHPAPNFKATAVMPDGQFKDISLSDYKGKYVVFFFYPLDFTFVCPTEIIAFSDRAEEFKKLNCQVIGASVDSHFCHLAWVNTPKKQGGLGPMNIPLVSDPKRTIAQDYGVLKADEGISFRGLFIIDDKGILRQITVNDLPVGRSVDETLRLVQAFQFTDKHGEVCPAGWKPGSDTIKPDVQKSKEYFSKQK

[2] = biological target: T2, PRDX5 (Homo sapiens, UniProt P30044); experiment: Trx-TrxR-NADPH coupling peroxiredoxin activity assay, PRDX5; assay type: biochemical
T2 sequence (P30044 53-214): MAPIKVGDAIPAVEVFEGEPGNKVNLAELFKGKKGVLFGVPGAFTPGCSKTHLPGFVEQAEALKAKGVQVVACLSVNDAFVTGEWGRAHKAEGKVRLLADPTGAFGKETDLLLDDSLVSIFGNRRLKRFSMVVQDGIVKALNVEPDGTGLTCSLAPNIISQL

[3] = biological target: T3, PRDX6 (Homo sapiens, UniProt P30041); experiment: Trx-TrxR-NADPH coupling peroxiredoxin activity assay, PRDX6; assay type: biochemical
T3 sequence (P30041 1-224): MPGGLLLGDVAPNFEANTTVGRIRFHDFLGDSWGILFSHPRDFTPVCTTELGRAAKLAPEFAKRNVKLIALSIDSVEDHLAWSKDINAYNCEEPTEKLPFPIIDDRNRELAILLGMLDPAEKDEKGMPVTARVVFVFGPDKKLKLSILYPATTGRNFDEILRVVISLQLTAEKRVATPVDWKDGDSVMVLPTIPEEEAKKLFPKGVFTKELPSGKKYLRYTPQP
Procedure: The assay was conducted in 96-well plates as previously described.[47] […] Then, the mixture solution containing 0.3 µM yeast Trx, 0.15 µM yeast TrxR and 200 µM NADPH was added to assay wells. The reaction was initiated with 100 µM hydrogen peroxide (H2O2) and detected with Thermo Multiskan FC at 340 nm. For PRDX1-6, the work concentration is 0.6 µM, 1.5 µM, 1 µM, 3 µM, 0.5 µM, 10 µM respectively. The initial reaction’s slope of assay wells containing mixture solution and H2O2 without PRDXs and compounds (S100%) were considered as 100 % inhibition of PRDXs’ peroxidase activity. The initial reaction’s slope of assay wells containing mixture solution, H2O2 and PRDXs without compounds (S0%) were considered as 0% inhibition of PRDXs’ peroxidase activity. […] The inhibition rate (%) was calculated from the following equations: 100 – (Scompound − S100%)/(S0% − S100%) × 100. […] Data were analyzed using GraphPad (version 8.0).

[4] = biological target: T4, recombinant wild type PRDX1 (Homo sapiens, UniProt Q06830); experiment: Surface plasmon resonance (SPR) assay; assay type: binding
T4 sequence (Q06830 1-199): T1 sequence (Q06830 1-199)

[5] = biological target: T1, PRDX1; experiment: Determination of Kinact and Ki for inhibition of PRDX1's peroxidase activity; assay type: biochemical
[6] = tested on: nude mice; experiment: Acute toxicity test (percent survival within 2 weeks); assay type: in vivo; conditions: for Survival number, female (n=4) / Survival number, male (n=4) / Survival rate, female (n=4) / Survival rate, male (n=4): within 2 weeks
Procedure: For acute toxicity test, Nude mice were randomly divided into five groups (four female mice and four male mice in each group). […] The percent survival within 2 weeks was recorded in Supplementary Table 2 and survival curve.

[7] = tested on: nude mice; experiment: Chronic toxicity test, routine blood test; conditions: 2 mg/kg, 5 days per week for two weeks

Compound	IC50 [1]	IC50 [2]	IC50 ([3]; recombinant PRDX6, 1.5 h incubation, mean ± SEM, triplicate, read-out: IC50 against the peroxidase activity of PRDX6)	Kd [4]	Ki [5]	Survival number, female (n=4) ([6]; 10 mg/kg intraperitoneally)	Survival number, male (n=4) ([6]; 10 mg/kg intraperitoneally)	Survival rate, female (n=4) ([6]; 10 mg/kg intraperitoneally)	Survival rate, male (n=4) ([6]; 10 mg/kg intraperitoneally)	Survival number, female (n=4) ([6]; 20 mg/kg intraperitoneally)	Survival number, male (n=4) ([6]; 20 mg/kg intraperitoneally)	Survival rate, female (n=4) ([6]; 20 mg/kg intraperitoneally)	Survival rate, male (n=4) ([6]; 20 mg/kg intraperitoneally)	survival, all mice (male and female), in words ([6]; 20 mg/kg, within two weeks)	count and proportion of monocyte and neutrophil, routine blood test (in words) [7]	inhibition of the peroxidase activity of PRDX5 (in words) ([2]; recombinant PRDX5)	IC50 ([2]; recombinant PRDX5, 1.5 h incubation, mean ± SEM, triplicate, read-out: IC50 against the peroxidase activity of PRDX5)	IC50 [3]	inhibition of the peroxidase activity of PRDX6 (in words) ([3]; recombinant PRDX6)	survival, all mice (male and female) ([6]; 10 mg/kg, within two weeks)
CC1=C(O)C(=O)C=C2C1=CC=C1[C@@]2(C)CC[C@@]2(C)[C@@H]3C[C@](C)(C(=O)O)CC[C@]3(C)CC[C@]12C [Celastrol, reference compound]	0.29 ± 0.01 µM	2.3 ± 0.13 µM	27.3 ± 0.39 µM	0.36 µM	0.95 ± 0.086 µM	0	1	0%	25%	0	0	0%	0%	All the mice died	higher than the reference intervals					
COC(=O)[C@H](C)NC(=O)N[C@]1(C)CC[C@]2(C)CC[C@]3(C)C4=CC=C5C(=CC(=O)C(O)=C5C)[C@]4(C)CC[C@@]3(C)[C@@H]2C1 [19-048, Methyl (((2R,4aS,6aS,12bR,14aS,14bR)-10-hydroxy-2,4a,6a,9,12b,14a-hexamethyl-11-oxo-1,2,3,4,4a,5,6,6a,11,12b,13,14,14a,14b-tetradecahydropicen-2-yl)carbamoyl)-L-alaninate]						4	4	100%	100%	0	4	0%	100%			no obvious inhibition	> 100 µM	> 100 µM	no obvious inhibition	100%
